Data as given in patent publication US9765092B2, “Tricyclic piperidine compounds” (ACTELION PHARMACEUTICALS LTD, priority 2013, dated 2017).

Target: human TPH1 (Homo sapiens (Human), UniProt P17752)
Assay: Biochemical in vitro assay using fluorescence readout (TPH1 inhibition)
[1] = human TPH1, fluorescence readout

Sequence of human TPH1 (P17752 whole entry): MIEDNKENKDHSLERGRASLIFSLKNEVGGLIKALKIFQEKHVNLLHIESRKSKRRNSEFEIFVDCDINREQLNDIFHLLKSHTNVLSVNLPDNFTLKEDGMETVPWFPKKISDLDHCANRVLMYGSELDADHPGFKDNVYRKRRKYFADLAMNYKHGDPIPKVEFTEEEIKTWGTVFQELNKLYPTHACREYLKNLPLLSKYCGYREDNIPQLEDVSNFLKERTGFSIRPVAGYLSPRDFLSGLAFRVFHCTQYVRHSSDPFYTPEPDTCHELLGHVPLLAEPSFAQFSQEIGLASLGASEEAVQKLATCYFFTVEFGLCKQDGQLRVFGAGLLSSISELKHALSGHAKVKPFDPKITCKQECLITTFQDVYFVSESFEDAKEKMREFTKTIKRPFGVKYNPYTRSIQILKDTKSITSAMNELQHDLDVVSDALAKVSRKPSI

CCc1ncccc1OCC(=O)N1CCc2nc3sc(C)nn3c2C1c1coc(-c2ccccc2)n1 (stereo not shown) [Example 1.12.2, 2-((2-ethylpyridin-3-yl)oxy)-1-(2-methyl-5-(2-phenyloxazol-4-yl)-7,8-dihydro-[1,3,4]thiadiazolo[2′,3′:2,3]imidazo[4,5-c]pyridin-6(5H)-yl)ethanone]
IC50 [1]: 336 nM

CCc1ncccc1OCC(=O)N1CCc2nc3sc(C)nn3c2C1c1ccc(C2CC2)cc1F (stereo not shown) [Example 1.6.9, 1-(5-(4-cyclopropyl-2-fluorophenyl)-2-methyl-7,8-dihydro-[1,3,4]thiadiazolo[2′,3′:2,3]imidazo[4,5-c]pyridin-6(5H)-yl)-2-((2-ethylpyridin-3-yl)oxy)ethanone]
IC50 [1]: 457 nM

CNC(=O)c1ccc(C2c3c(nc4sc(C)nn34)CCN2C(=O)COc2ccc(N3CCOCC3)nc2Cl)o1 (stereo not shown) [Example 1.42.2, 5-(6-(2-((2-chloro-6-morpholinopyridin-3-yl)oxy)acetyl)-2-methyl-5,6,7,8-tetrahydro-[1,3,4]thiadiazolo[2′,3′:2,3]imidazo[4,5-c]pyridin-5-yl)-N-methylfuran-2-carboxamide]
IC50 [1]: 11 nM

Cc1nn2c3c(nc2s1)CCN(C(=O)COc1ccc(C(F)(F)F)cc1Cl)C3c1sc(C(=O)N(C)C)cc1F (stereo not shown) [Example 1.24.3, 5-(6-(2-(2-chloro-4-(trifluoromethyl)phenoxy)acetyl)-2-methyl-5,6,7,8-tetrahydro-[1,3,4]thiadiazolo[2′,3′:2,3]imidazo[4,5-c]pyridin-5-yl)-4-fluoro-N,N-dimethylthiophene-2-carboxamide]
IC50 [1]: 8 nM

Cc1nn2c3c(nc2s1)CCN(C(=O)COc1ccc(N2CCCS2(=O)=O)nc1Cl)C3c1ccc(Cl)cc1F (stereo not shown) [Example 1.4.49, 1-(5-(4-chloro-2-fluorophenyl)-2-methyl-7,8-dihydro-[1,3,4]thiadiazolo[2′,3′:2,3]imidazo[4,5-c]pyridin-6(5H)-yl)-2-((2-chloro-6-(1,1-dioxidoisothiazolidin-2-yl)pyridin-3-yl)oxy)ethanone]
IC50 [1]: 9 nM

CCc1cc(F)ccc1OCC(=O)N1CCc2nc3sccn3c2C1c1ccc(C)cc1F (stereo not shown) [Example 6.10.4, 2-(2-ethyl-4-fluorophenoxy)-1-(5-(2-fluoro-4-methyl-phenyl)-7,8-dihydrothiazolo[2′,3′:2,3]imidazo[4,5-c]-pyridin-6(5H)-yl)ethanone]
IC50 [1]: 6 nM

Cc1nn2c3c(nc2s1)CCN(C(=O)COc1ccc(C(=O)NC2CC2)nc1Cl)C3c1ccc(OC(F)(F)F)cc1F (stereo not shown) [Example 1.77.2, 6-chloro-N-cyclopropyl-5-(2-(5-(2-fluoro-4-(trifluoromethoxy)phenyl)-2-methyl-7,8-dihydro-[1,3,4]thiadiazolo[2′,3′:2,3]imidazo[4,5-c]pyridin-6(5H)-yl)-2-oxoethoxy)picolinamide]
IC50 [1]: 28 nM

Cc1nn2c3c(nc2s1)CCN(C(=O)COc1ccc(N2CCOCC2)nc1Cl)C3c1nc(-c2ccccc2)no1 (stereo not shown) [Example 1.11.3, 2-((2-chloro-6-morpholinopyridin-3-yl)oxy)-1-(2-methyl-5-(3-phenyl-1,2,4-oxadiazol-5-yl)-7,8-dihydro-[1,3,4]thiadiazolo [2′,3′:2,3]imidazo[4,5-c]pyridin-6(5H)-yl)ethanone]
IC50 [1]: 4 nM

Cc1nn2c3c(nc2s1)CCN(C(=O)COc1ccc(CN2CCOCC2)nc1Cl)C3c1ccc(Cl)cc1F (stereo not shown) [Example 1.4.1, 1-(5-(4-chloro-2-fluorophenyl)-2-methyl-7,8-dihydro-[1,3,4]thiadiazolo[2′,3′:2,3]imidazo[4,5-c]pyridin-6(5H)-yl)-2-((2-chloro-6-(morpholinomethyl)pyridin-3-yl)oxy)ethanone]
IC50 [1]: 9 nM

CCc1cc(Cl)ccc1OCC(=O)N1CCc2nc3sccn3c2C1c1c(C)noc1C (stereo not shown) [Example 6.5.5, 2-(4-chloro-2-ethylphenoxy)-1-(5-(3,5-dimethylisoxazol-4-yl)-7,8-dihydrothiazolo[2′,3′:2,3]imidazo[4,5-c]pyridin-6(5H)-yl)ethanone]
IC50 [1]: 135 nM

2-(4-(aminomethyl)-2-chlorophenoxy)-1-(5-(3-fluorothiophen-2-yl)-2-methyl-7,8-dihydro-[1,3,4]thiadiazolo[2′,3′:2,3]imidazo[4,5-c]pyridin-6(5H)-yl)ethanone [Example 1.23.7]
IC50 [1]: 38 nM

O=C(COc1ccc(NS(=O)(=O)C2CC2)nc1Cl)N1CCc2nc3sccn3c2C1c1sccc1F (stereo not shown) [Example 6.8.1, N-(6-chloro-5-(2-(5-(3-fluorothiophen-2-yl)-7,8-dihydro-thiazolo[2′,3′:2,3]imidazo[4,5-c]pyridin-6(5H)-yl)-2-oxoethoxy)pyridin-2-yl)cyclopropanesulfonamide]
IC50 [1]: 15 nM

Cc1nn2c3c(nc2s1)CCN(C(=O)COc1ccc(C(F)(F)F)nc1Cl)C3c1cnc(N(C)C)s1 (stereo not shown) [Example 1.22.3, 2-((2-Chloro-6-(trifluoromethyl)pyridin-3-yl)oxy)-1-(5-(2-(dimethylamino)thiazol-5-yl)-2-methyl-7,8-dihydro-[1,3,4]thiadiazolo[2′,3′:2,3]imidazo[4,5-c]pyridin-6(5H)-yl)ethanone]
IC50 (full length human TPH1, 40 μM L-tryptophan, 15° C., 60 minutes, fluorescence at 540 nm, mean if determined several times): 136 nM

CCc1nn2c3c(nc2s1)CCN(C(=O)COc1ccc(NS(C)(=O)=O)nc1Cl)C3c1ccc(Cl)cc1F (stereo not shown) [Example 3.1.1, N-(6-chloro-5-(2-(5-(4-chloro-2-fluorophenyl)-2-ethyl-7,8-dihydro-[1,3,4]thiadiazolo[2′,3′:2,3]imidazo[4,5-c]-pyridin-6(5H)-yl)-2-oxoethoxy)pyridin-2-yl)methanesulfonamide]
IC50 [1]: 13 nM

CS(=O)(=O)Nc1ccc(OCC(=O)N2CCc3nc4sccn4c3C2c2ccc(Cl)cc2F)c(Cl)n1 (stereo not shown) [Example 6.4.8, N-(6-chloro-5-(2-(5-(4-chloro-2-fluorophenyl)-7,8-dihydrothiazolo[2′,3′:2,3]imidazo[4,5-c]pyridin-6(5H)-yl)-2-oxoethoxy)pyridin-2-yl)methanesulfonamide]
IC50 [1]: 3 nM

CNC(=O)c1ccc(OCC(=O)N2CCc3nc4sc(C)nn4c3C2c2sccc2F)c(Cl)n1 (stereo not shown) [Example 1.23.10, 6-chloro-5-(2-(5-(3-fluorothiophen-2-yl)-2-methyl-7,8-dihydro-[1,3,4]thiadiazolo[2′,3′:2,3]imidazo[4,5-c]pyridin-6(5H)-yl)-2-oxoethoxy)-N-methylpicolinamide]
IC50 [1]: 9 nM

N#Cc1ccc(OCC(=O)N2CCc3nc4sc(C5CC5)nn4c3C2c2ccc(Cl)cc2F)c(Cl)c1 (stereo not shown) [Example 4.1.2, 3-chloro-4-(2-(5-(4-chloro-2-fluorophenyl)-2-cyclopropyl-7,8-dihydro-[1,3,4]thiadiazolo-[2′,3′:2,3]imidazo[4,5-c]pyridin-6(5H)-yl)-2-oxoethoxy)benzonitrile]
IC50 [1]: 23 nM

Cc1nn2c3c(nc2s1)CCN(C(=O)COc1ccc(N2CC(F)(F)C2)nc1Cl)C3c1sccc1F (stereo not shown) [Example 1.23.8, 2-((2-chloro-6-(3,3-difluoroazetidin-1-yl)pyridin-3-yl)oxy)-1-(5-(3-fluorothiophen-2-yl)-2-methyl-7,8-dihydro-[1,3,4]thiadiazolo[2′,3′:2,3]imidazo[4,5-c]pyridin-6(5H)-yl)ethanone]
IC50 [1]: 6 nM

CCc1nc(C)ccc1OCC(=O)N1CCc2nc3sccn3c2C1c1ccc(C(F)(F)F)nc1C (stereo not shown) [Example 6.17.1, 2-((2-ethyl-6-methylpyridin-3-yl)oxy)-1-(5-(2-methyl-6-(trifluoromethyl)pyridin-3-yl)-7,8-dihydrothiazolo-[2′,3′:2,3]imidazo[4,5-c]pyridin-6(5H)-yl)ethanone]
IC50 [1]: 194 nM
